Test results taken from US6156758A, “Antibacterial quinazoline compounds” (Isis Pharmaceuticals, Inc., priority 1999, dated 2000).
≈ marks a conversion by molar mass, not a printed value.

How the values were obtained:
Type in all cases: cell-based
E. coli imp- = test: MIC determination, initial screen, E. coli imp-; conditions: Escherichia coli, 24 h, read-out: MIC E. coli imp
Source text: (§1) The Streptococcus pyogenes strains, Klebsiella pneumoniae, Escherichia coli, Staphylococcus aureus, Enterococcus faecalis used in the antibacterial activity studies ATCC 14289, 49399, 13883, 25922, 13709, 29212, respectively, were obtained from the American Type Culture Collection, Rockville, Md. The strain E. coli imp- is a mutant strain of wild type E. coli with increased outer membrane permeability. In initial screens, E. coli imp- and S. pyrogenes (ATCC 14289) were used. The E. coli imp-strain was grown in LB broth, and the S. pyogenes strain was grown in Todd-Hewitt broth. Interesting compounds were further evaluated in the tier II screens against other bacterial screens. S. aureus was grown in trypticase soy broth, E. faecalis in Todd-Hewitt broth, wild type E. coli and K. pneumoniae, in nutrient broth. All bacterial were grown at 37° C.
(§2) The assays were carried out in 150 μL volume in duplicate in 96-well clear flat-bottom plates. The bacterial suspension from an overnight culture growth in appropriate medium was added to a solution of test compound in 4% DMSO in water. Final bacterial inoculum was approximately 10^5 -10^6 CFU/well. The percent growth of the bacteria in test wells relative to that observed for a well containing no compound was determined by measuring absorbance at 595 nm (A595) after 24 h. […] Both ampicillin and tetracycline were used as antibiotic-positive controls in each screening assay for S. pyogenes, E. coli imp-, E. coli, S. aureus, E. faecalis, K. pneumoniae and P. vulgaris. Ciprofloxacin was used as an antibiotic positive control in each screening assay for P. aeruginosa.

S. pyogenes [1] = test: MIC determination, initial screen, S. pyogenes; conditions: Streptococcus pyogenes, ATCC14289; Table 1; ATCC 14289 (initial screen); 24 h, A595
Source text: as §1, §2

E. faecalis = test: MIC determination, tier II screen, E. faecalis (#29212); conditions: Enterococcus faecalis; Table 2; 24 h, A595
Source text: as §1, §2

S. pyogenes [2] = test: MIC determination, tier II screen, S. pyogenes (#49399); conditions: Streptococcus pyogenes; Table 2; 24 h, A595
Source text: as §1, §2

S. aureus = test: MIC determination, tier II screen, S. aureus (#13709); conditions: Staphylococcus aureus; Table 2; 24 h, A595
Source text: as §1, §2

K. pneumoniae = test: MIC determination, tier II screen, K. pneumoniae (#13883); conditions: Klebsiella pneumoniae; Table 2; 24 h, A595
Source text: as §1, §2

E. coli = test: MIC determination, tier II screen, wild type E. coli (#25922); conditions: Escherichia coli, Table 2, 24 h, A595
Source text: as §1, §2

| SMILES | MIC (E. coli imp-) [µM] | MIC (S. pyogenes [1]) [µM] | MIC (E. faecalis) [µM] | MIC (S. pyogenes [2]) [µM] | MIC (S. aureus) [µM] | MIC (K. pneumoniae) [µM] | MIC (E. coli) [µM] |
| --- | --- | --- | --- | --- | --- | --- | --- |
| COc1cc2nc(N3CCC(Nc4ccc(C(=O)O)cc4)CC3)nc(Nc3ccc(C)cc3)c2cc1OC [Compound 31, 4-[1-(6,7-Dimethoxy-4-p-tolylaminoquinazolin-2-yl)piperidin-4-ylamino]benzoic acid] | > 20 | > 20 | – | – | – | – | – |
| COc1cc2nc(N3CCC(Nc4ccc(C(=O)OC(C)(C)C)cc4)CC3)nc(N)c2cc1OC [Compound 5, 4-[1-(4-Amino-6,7-dimethoxy-quinazolin-2-yl)-piperidin-4-ylamino]-benzoic acid tert-butyl ester] | 6 to 12 (≈ 2.88 to 5.75 µg/mL) | 3 to 6 (≈ 1.44 to 2.88 µg/mL) | 6 to 12 (≈ 2.88 to 5.75 µg/mL) | 6 to 12 (≈ 2.88 to 5.75 µg/mL) | > 100 | > 100 | > 100 |
| COc1cc2nc(N3CCC(Nc4ccc(C(=O)OC(C)(C)C)cc4)CC3)nc(OC)c2cc1OC [Compound 14, 4-[1-(4,6,7-Trimethoxyquinazolin-2-yl)piperidin-4-ylamino]benzoic acid tert-butyl ester] | < 100 | < 100 | – | – | – | – | – |
| COc1cc2nc(N3CCC(Nc4ccc(C(=O)O)cn4)CC3)nc(N)c2cc1OC [Compound 20, 6-[1-(4-Amino-6,7-dimethoxyquinazolin-2-yl)piperidin-4-ylamino]nicotinic acid] | > 50 | > 20 | – | – | – | – | – |
| COC(=O)c1nc(Cl)c(NC2CCN(c3nc(N)c4cc(OC)c(OC)cc4n3)CC2)nc1N [Compound 1, 3-Amino-5-[1-(4-amino-6,7-dimethoxy-quinazolin-2-yl)-piperidin-4-ylamino]-6-chloro-pyrazine-2-carboxylic acid methyl ester] | > 25 | 12 to 25 (≈ 5.87 to 12.2 µg/mL) | – | – | – | – | – |
| COc1cc2nc(N3CCC(Nc4ccc(C(=O)O)cc4)CC3)nc(N)c2cc1OC [Compound 22, 4-[1-(4-Amino-6,7-dimethoxyquinazolin-2-yl)piperidin-4-ylamino]benzoic acid] | 0.4 to 2 (≈ 0.169 to 0.847 µg/mL) | > 25 | > 100 | > 25 | 6 to 12 (≈ 2.54 to 5.08 µg/mL) | 6 to 12 (≈ 2.54 to 5.08 µg/mL) | 60 to 80 (≈ 25.4 to 33.9 µg/mL) |
| COc1cc2cnc(N3CCC(Nc4ccc(C(=O)O)cc4)CC3)nc2cc1OC [Compound 28, 4-[1-(6,7-Dimethoxyquinazolin-2-yl)piperidin-4-ylamino]benzoic acid] | > 20 | > 20 | – | – | – | – | – |
| Nc1nc(N2CCC(Nc3ccc(C(=O)O)cc3)CC2)nc2ccccc12 [Compound 32, 4-[1-(4-Aminoquinazolin-2-yl)piperidin-4-ylamino]benzoic acid] | > 100 | > 100 | – | – | – | – | – |
| COC(=O)c1ccc(NC2CCN(c3nc(N)c4cc(OC)c(OC)cc4n3)CC2)nc1 [Compound 3, 6-[1-(4-Amino-6,7-dimethoxy-quinazolin-2-yl)-piperidin-4-ylamino]-nicotinicacid methyl ester] | > 50 | 25 to 50 (≈ 11 to 21.9 µg/mL) | – | – | – | – | – |
| COc1cc2nc(N3CCC(Nc4ccc(C(=O)OC(C)(C)C)cc4)CC3)nc(Nc3ccc(C)cc3)c2cc1OC [Compound 16, 4-[1-(6,7-Dimethoxy-4-p-tolylaminoquinazolin-2-yl)piperidin-4-ylamino]benzoic acid tert-butyl ester] | 10 to 20 (≈ 5.7 to 11.4 µg/mL) | 2.5 to 5 (≈ 1.42 to 2.85 µg/mL) | – | – | – | – | – |
| COc1cc2nc(N3CCC(Nc4nc(N)c(C(=O)O)nc4Cl)CC3)nc(N)c2cc1OC [Compound 18, 3-Amino-5-[1-(4-amino-6,7-dimethoxyquinazolin-2-yl)piperidin-4-ylamino]-6-chloropyrazine-2-carboxylic acid] | > 100 | > 100 | – | – | – | – | – |
| COc1cc2cnc(N3CCC(Nc4ccc(C(=O)OC(C)(C)C)cc4)CC3)nc2cc1OC [Compound 13, 4-[1-(6,7-Dimethoxyquinazolin-2-yl)piperidin-4-ylamino]benzoic acid tert-butyl ester] | > 20 | > 20 | – | – | – | – | – |
| COc1cc2nc(N3CCC(Nc4ccc(C(=O)OC(C)(C)C)cc4)CC3)[nH]c(=O)c2cc1OC [Compound 15, 4-[1-(6,7-Dimethoxy-4-oxo-3,4-dihydroquinazolin-2-yl)piperidin-4-ylamino]benzoic acid tert-butyl ester] | > 100 | > 100 | – | – | – | – | – |
| COC(=O)c1ccc(NC2CCN(c3nc(N)c4cc(OC)c(OC)cc4n3)CC2)cc1 [Compound 4, 4-[1-(4-Amino-6,7-dimethoxy-quinazolin-2-yl)-piperidin-4-ylamino]-benzoic acid methyl ester] | 5 to 25 (≈ 2.19 to 10.9 µg/mL) | 5 to 25 (≈ 2.19 to 10.9 µg/mL) | 20 to 40 (≈ 8.75 to 17.5 µg/mL) | 5 to 25 (≈ 2.19 to 10.9 µg/mL) | > 100 | > 100 | > 100 |
| COC(=O)c1ncc(NC2CCN(c3nc(N)c4cc(OC)c(OC)cc4n3)CC2)nc1N [Compound 2, 3-Amino-5-[1-(4-amino-6,7-dimethoxy-quinazolin-2-yl)-piperidin-4-ylamino]-pyrazine-2-carboxylic acid methyl ester] | > 50 | > 50 | – | – | – | – | – |
| CC(C)(C)OC(=O)c1ccc(NC2CCN(c3nc(N)c4ccccc4n3)CC2)cc1 [Compound 17, 4-[1-(4-Aminoquinazolin-2-yl)piperidin-4-ylamino]benzoic acid tert-butyl ester] | < 100 | < 100 | – | – | – | – | – |
| COc1cc2nc(N3CCC(Nc4ccc(C(=O)OC(C)(C)C)cc4[N+](=O)[O-])CC3)nc(N)c2cc1OC [Compound 6, 4-[1-(4-Amino-6,7-dimethoxyquinazolin-2-yl)piperidin-4-ylamino]-3-nitrobenzoic acid tert-butyl ester] | 25 to 50 (≈ 13.1 to 26.2 µg/mL) | 50 to 100 (≈ 26.2 to 52.5 µg/mL) | – | – | – | – | – |
| COc1cc2nc(N3CCC(Nc4cnc(C(=O)O)c(N)n4)CC3)nc(N)c2cc1OC [Compound 19, 3-Amino-5-[1-(4-amino-6,7-dimethoxyquinazolin-2-yl)piperidin-4-ylamino]pyrazine-2-carboxylic acid] | > 25 | > 25 | – | – | – | – | – |
| COc1cc2nc(N3CCC(Nc4ccc(C(=O)O)cc4)CC3)[nH]c(=O)c2cc1OC [Compound 30, 4-[1-(6,7-Dimethoxy-4-oxo-3,4-dihydroquinazolin-2-yl)piperidin-4-ylamino]benzoic acid] | > 20 | > 20 | – | – | – | – | – |
| COc1cc2nc(N3CCC(Nc4ccc(C(=O)O)cc4[N+](=O)[O-])CC3)nc(N)c2cc1OC [Compound 21, 4-[1-(4-Amino-6,7-dimethoxyquinazolin-2-yl)piperidin-4-ylamino]-3-nitrobenzoic acid] | > 20 | > 20 | – | – | – | – | – |
| COc1cc2nc(N3CCC(Nc4ccc(C(=O)O)cc4)CC3)nc(OC)c2cc1OC [Compound 29, 4-[1-(4,6,7-Trimethoxyquinazolin-2-yl)piperidin-4-ylamino]benzoic acid] | > 20 | > 20 | – | – | – | – | – |
